Reference: publication PMC9544171, “Glucose‐dependent insulinotropic polypeptide receptor antagonist treatment causes a reduction in weight gain in ovariectomised high fat diet‐fed mice” (British Journal of Pharmacology, 2022)
Where a SMILES comes first, the peptide text is derived from it. The star is where a group is joined. C16 diacid = O=C(O)CCCCCCCCCCCCCCC(=O)*

Tests used:
mouse GLP‐1 receptor = target: T1, mouse GLP‐1 receptor (Mus musculus, UniProt O35659); assay: cAMP accumulation, agonism in transfected COS‐7 cells; format: cell-based; settings: increasing concentrations, COS‐7, n = 5
T1 construct: host or cells: COS-7
T1 sequence (O35659 22-463): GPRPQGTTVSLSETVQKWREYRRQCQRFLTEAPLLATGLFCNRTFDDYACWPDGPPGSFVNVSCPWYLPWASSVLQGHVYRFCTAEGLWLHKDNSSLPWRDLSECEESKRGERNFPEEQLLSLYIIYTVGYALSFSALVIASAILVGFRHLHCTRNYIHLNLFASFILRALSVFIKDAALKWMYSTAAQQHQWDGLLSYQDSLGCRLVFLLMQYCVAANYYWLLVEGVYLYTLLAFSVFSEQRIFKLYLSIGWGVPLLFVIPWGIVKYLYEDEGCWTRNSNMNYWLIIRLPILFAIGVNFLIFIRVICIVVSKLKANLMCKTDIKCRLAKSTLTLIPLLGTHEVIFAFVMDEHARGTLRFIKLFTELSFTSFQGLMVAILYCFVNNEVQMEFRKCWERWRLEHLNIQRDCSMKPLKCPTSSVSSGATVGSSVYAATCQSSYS
Procedure: COS‐7 cells were cultured at 10% CO2 and 37°C in Dulbecco's Modified Eagle Medium 1885 supplemented with 10% foetal bovine serum, 2‐mM glutamine, 180‐units ml^−1 penicillin and 45‐g·ml^−1 streptomycin. […] A second set of cells was transiently transfected with either mouse GLP‐1 or GLP‐2 receptor. Following the day after transfection, the cells were seeded in white 96‐well plates with a density of 35.000 cells per well. The next day the assay was initiated by washing the cells with HEPES buffered saline (HBS) followed by an incubation step with HBS and 1‐mM 3‐isobutyl‐1‐methylxanthine for 30 min at 37°C. For agonist studies, the ligands were then added and incubated for an additional 30 min at 37°C. To test for antagonistic properties, the cells were first preincubated for 10 min with the antagonist with subsequent addition of the agonist and incubated for an additional 20 min. The HitHunter® cAMP assay (Eurofins DiscoverX, Fremont, USA) was carried out according to the manufacturer's protocol. Luminescence was measured by PerkinElmer™ Envision 2014 Multilabel Reader.
COS‐7 cells were transiently transfected with (a) mouse GLP1‐R and (b) mouse GLP‐2 R and assayed for cAMP accumulation. […] Data are shown as mean ± SE from n = 5 independent experiments

[1] = system: Female ovariectomised C57Bl6/J mice; assay: HFD study in ovariectomised mice, body weight and composition, 8 weeks; format: in vivo, mouse
Procedure: Prior to bilateral ovariectomy surgery and once daily for 48 h following, mice received analgesics through s.c. injection of carprofen (Rimadyl; 5 mg·kg^−1). Anaesthesia was induced in an induction chamber with 5% isoflurane and maintained with 2% isoflurane through a nose cone during the procedure. Proper respiration was ensured with a flow of oxygen through the nose cone and body temperature was maintained at 37°C by placing the mice on a heating pad. Mice were placed in a prone position on a sterile surgery pad and the area of incision was shaved and sterilized with 70% ethanol. Two dorsal‐lateral incisions were made and the ovary and attached fat pad were individually pulled out of the abdominal cavity. The fallopian tubes were ligated and the ovaries were dissected, then the fat pad was carefully placed back in the abdominal cavity. The skin incision was closed using wound clips (Reflex, Alzet, Cupertino, CA, USA). In half of the animals, a microtransponder (Datamars, Lamone, Switzerland) was inserted and animals were placed in an HM‐2 cage with the intention to measure food intake (MBrose, Faaborg, Denmark) and left to recover and acclimatize for a week. The remaining animals were placed back in their home cages to recover for a week. The division of mice into HM‐2 cages and home cages was randomized. Uterine atrophy was confirmed in all mice upon termination of the study, indicating successful ovariectomy.
A week after ovariectomy, at 10 weeks of age, animals were randomized into groups and placed on a 60 kcal% HFD (HFD, D12492, Research Diets, New Brunswick, NJ, USA) or a control diet (10 kcal% fat, D12450J, Research Diets) for 8 weeks. Group sizes were as follows: Vehicle/control diet, n = 12; mGIPAnt‐1/control diet, n = 12; Vehicle/HFD, n = 11; mGIPAnt‐1/HFD, n = 12. The reduction of animal numbers in group Vehicle/HFD was due to unexpected loss of an animal. Animals received a daily s.c. injection at 4:30 PM with mGIPAnt‐1 (300‐nmol·kg^−1) or vehicle. Body weight and body composition were assessed weekly (LF90II body composition analyzer, Bruker, Billerica, MA, USA). On the final experimental day, animals were anaesthetized with an intraperitoneal injection of 90 mg·kg^−1 ketamine and 10‐mg·kg^−1 xylazine. The microchip was quickly removed from HM‐2 cage animals and a final body composition measurement was performed on all animals. A terminal retro‐orbital blood sample was taken, mice were killed through cervical dislocation and tissues were quickly dissected and weighed.

CC[C@H](C)[C@H](NC(=O)[C@H](CO)NC(=O)[C@H](Cc1ccc(O)cc1)NC(=O)[C@H](CC(=O)O)NC(=O)[C@H](CO)NC(=O)[C@@H](NC(=O)[C@H](Cc1ccccc1)NC(=O)[C@@H](NC(=O)CNC(=O)[C@@H](N)CCC(=O)O)[C@@H](C)O)[C@@H](C)CC)C(=O)N[C@@H](C)C(=O)N[C@@H](CCSC)C(=O)N[C@@H](CC(=O)O)C(=O)N[C@@H](CCCCN)C(=O)N[C@H](C(=O)N[C@@H](CCCCNC(=O)CCCCCCCCCCCCCCC(=O)O)C(=O)N[C@@H](CCC(N)=O)C(=O)N[C@@H](CCC(N)=O)C(=O)N[C@@H](CC(=O)O)C(=O)N[C@@H](Cc1ccccc1)C(=O)N[C@H](C(=O)N[C@@H](CC(N)=O)C(=O)N[C@@H](Cc1c[nH]c2ccccc12)C(=O)N[C@@H](CC(C)C)C(=O)N[C@@H](CC(C)C)C(=O)N[C@@H](C)C(=O)N[C@@H](CCC(N)=O)C(=O)N[C@@H](CCCCN)C(=O)NCC(=O)N[C@@H](CCCCN)C(=O)N[C@@H](CCCCN)C(=O)N[C@@H](CC(N)=O)C(=O)N[C@@H](CC(=O)O)C(=O)N[C@@H](Cc1c[nH]c2ccccc12)C(=O)N[C@@H](CCCCN)C(=O)N[C@@H](Cc1c[nH]cn1)C(=O)N[C@@H](CC(N)=O)C(=O)O)C(C)C)[C@@H](C)CC [mGIPAnt‐1] (H-EGTFISDYSIAMDKIK(C16 diacid)QQDFVNWLLAQKGKKNDWKHN-OH)
activation of mouse GLP‐1 receptor (cAMP) (mouse GLP‐1 receptor): does not induce activation | final lean body mass ([1]; 300 nmol·kg−1 s.c. daily, 8 weeks): not affected | body weight, HFD ([1]; 300 nmol·kg−1 s.c. daily, 8 weeks, 60 kcal% HFD, versus Vehicle/HFD, n = 11–12): body weight in the control, HFD group was significantly higher compared to the mGIPAnt‐1/HFD group | absolute body weight, control diet ([1]; 300 nmol·kg−1 s.c. daily, 8 weeks, control diet, n = 12): not affected | total body weight gain, overall treatment effect ([1]; 300 nmol·kg−1 s.c. daily, 8 weeks, two‐way ANOVA): reducing total body weight gain | body fat percentage, HFD ([1]; at 6 and 8 weeks, 300 nmol·kg−1 s.c. daily, versus Control/HFD, n = 6): Control/HFD animals significantly increased body fat percentage compared to mGIPAnt‐1/HFD animals | BAT weight ([1]; terminal): not affected | eWAT weight, control diet ([1]; terminal): did not affect | iWAT weight, control diet ([1]; terminal): did not affect | liver weight ([1]; terminal): not affected | eWAT weight, HFD ([1]; terminal, versus Vehicle/HFD): reduced | iWAT weight, HFD ([1]; terminal, versus Vehicle/HFD): reduced
